The text below walks through data of ChEMBL document CHEMBL2021863, “Design and synthesis of new 4-pyrazolin-3-yl-1,2,3-triazoles and 1,2,3-triazol-4-yl-pyrazolin-1-ylthiazoles as potential antimicrobial agents” (2012).

Molecules are shown by their SMILES. Values after ≈ are worked out from the molar mass of the structure shown.

One experiment has as its system Bacillus subtilis. In words: Antimicrobial activity against Bacillus subtilis ATCC 6633 at 100 ug/ml after 24 hrs by agar well diffusion assay. The format is functional. The conditions noted are these: ATCC 6633, 24 h, read-out: DIZ. (In agar diffusion tests the substance spreads into inoculated agar from a disc or well.)
Regarding `Cc1ccc(-n2nnc(C3=NNC(c4ccc(C#N)cc4)C3)c2C)cc1` (stereo not drawn), the zone of inhibition at 100 µg/mL was 26 mm.

For a further experiment, the system named is Priestia megaterium. In words: Antimicrobial activity against Bacillus megaterium ATCC 9885 at 100 ug/ml after 24 hrs by agar well diffusion assay. The format is functional. The note with it: ATCC 9885, 24 h, read-out: DIZ.
For `Cc1ccc(-n2nnc(C3=NNC(c4ccc(C#N)cc4)C3)c2C)cc1` (stereo not drawn), the zone of inhibition at 100 µg/mL worked out at 24 mm.

For a further experiment, the system named is Micrococcus luteus. In words: Antimicrobial activity against Sarcina lutea at 100 ug/ml after 24 hrs by agar well diffusion assay. The format is functional. The note with it: read-out: DIZ.
As to `Cc1ccc(-n2nnc(C3=NNC(c4ccc(C#N)cc4)C3)c2C)cc1` (stereo not drawn), the zone of inhibition at 100 µg/mL is 28 mm.

In the next experiment the test system is Klebsiella pneumoniae. In words: Antimicrobial activity against Klebsiella pneumoniae ATCC 13883 at 100 ug/ml after 24 hrs by agar well diffusion assay. The format is functional. The conditions noted are these: ATCC 13883, 24 h, read-out: DIZ.
With `Cc1ccc(-n2nnc(C3=NNC(c4ccc(C#N)cc4)C3)c2C)cc1` (stereo not drawn), the zone of inhibition at 100 µg/mL worked out at 30 mm.

Another experiment deals with Pseudomonas aeruginosa. Briefly: Antimicrobial activity against Pseudomonas aeruginosa ATCC 27953 at 100 ug/ml after 24 hrs by agar well diffusion assay. The format is functional. The conditions noted are these: ATCC 27953, 24 h, read-out: DIZ.
For `Cc1ccc(-n2nnc(C3=NNC(c4ccc(C#N)cc4)C3)c2C)cc1` (stereo not drawn), the zone of inhibition at 100 µg/mL worked out at 28 mm.

The next experiment deals with Escherichia coli. Briefly: Antimicrobial activity against Escherichia coli ATCC 25922 at 100 ug/ml after 24 hrs by agar well diffusion assay. It is filed as functional. The conditions noted are these: ATCC 25922, 24 h, read-out: DIZ.
Consider `Cc1ccc(-n2nnc(C3=NNC(c4ccc(C#N)cc4)C3)c2C)cc1` (stereo not drawn), for which the zone of inhibition at 100 µg/mL is 30 mm.

A further experiment concerns Saccharomyces cerevisiae. In words: Antifungal activity against Saccharomyces cerevisiae at 100 ug/ml after 24 hrs by agar well diffusion assay. The format is functional. The note with it: read-out: DIZ.
As for `Cc1ccc(-n2nnc(C3=NNC(c4ccc(C#N)cc4)C3)c2C)cc1` (stereo not drawn), the zone of inhibition at 100 µg/mL is 30 mm.

The next experiment relates to Candida albicans. Briefly: Antifungal activity against Candida albicans NRRL Y-477 at 100 ug/ml after 24 hrs by agar well diffusion assay. The format is functional. The note with it: NRRL Y-477, 24 h, read-out: DIZ.
As for `Cc1ccc(-n2nnc(C3=NNC(c4ccc(C#N)cc4)C3)c2C)cc1` (stereo not drawn), the zone of inhibition at 100 µg/mL turned out to be 28 mm.

The subject of a further experiment is Priestia megaterium. In words: Antimicrobial activity against Bacillus megaterium ATCC 9885 at 50 ug/ml after 24 hrs by agar well diffusion assay. The conditions noted are these: ATCC 9885, 24 h, read-out: DIZ. The format is functional.
In the case of `O=C(O)c1cn(C2CC2)c2cc(N3CCNCC3)c(F)cc2c1=O` [CIPROFLOXACIN], the zone of inhibition at 50 µg/mL is 24 mm.

The next experiment has as its system Micrococcus luteus. Briefly: Antimicrobial activity against Sarcina lutea at 50 ug/ml after 24 hrs by agar well diffusion assay. The note with it: read-out: DIZ. It is filed as functional.
On to `O=C(O)c1cn(C2CC2)c2cc(N3CCNCC3)c(F)cc2c1=O` [CIPROFLOXACIN], for which the zone of inhibition at 50 µg/mL was 20 mm.

In the next experiment the test system is Saccharomyces cerevisiae. Briefly: Antifungal activity against Saccharomyces cerevisiae at 50 ug/ml after 24 hrs by agar well diffusion assay. It is filed as functional. The note with it: read-out: DIZ.
As to `CC(=O)N1CCN(c2ccc(OCC3COC(Cn4ccnc4)(c4ccc(Cl)cc4Cl)O3)cc2)CC1` (stereo not drawn) [KETOCONAZOLE], the zone of inhibition at 50 µg/mL is 23 mm.

A further experiment deals with Candida albicans. Briefly: Antifungal activity against Candida albicans NRRL Y-477 at 50 ug/ml after 24 hrs by agar well diffusion assay. It is filed as functional. The note with it: NRRL Y-477, 24 h, read-out: DIZ.
Consider `CC(=O)N1CCN(c2ccc(OCC3COC(Cn4ccnc4)(c4ccc(Cl)cc4Cl)O3)cc2)CC1` (stereo not drawn) [KETOCONAZOLE], for which the zone of inhibition at 50 µg/mL was determined as 22 mm.

For another experiment, the system named is Staphylococcus aureus. In words: Antimicrobial activity against Staphylococcus aureus ATCC 29213 after 24 hrs by two-fold serial dilution method. The format is functional. The note with it: ATCC 29213, 24 h.
As to `O=C(O)c1cn(C2CC2)c2cc(N3CCNCC3)c(F)cc2c1=O` [CIPROFLOXACIN], the lowest concentration to inhibit growth (MIC) was 8.25 µg/mL (≈ 24.9 µM).

The next experiment relates to Bacillus subtilis. In words: Antimicrobial activity against Bacillus subtilis ATCC 6633 after 24 hrs by two-fold serial dilution method. The format is functional. The conditions noted are these: ATCC 6633, 24 h.
As for `Cc1ccc(-n2nnc(C3=NNC(c4ccc(C#N)cc4)C3)c2C)cc1` (stereo not drawn), it took 33 µg/mL (≈ 96.4 µM) to inhibit growth (MIC).
Same read-out and setting: in the case of `O=C(O)c1cn(C2CC2)c2cc(N3CCNCC3)c(F)cc2c1=O` [CIPROFLOXACIN] it was 8.25 µg/mL (≈ 24.9 µM).

In the next experiment the test system is Priestia megaterium. In words: Antimicrobial activity against Bacillus megaterium ATCC 9885 after 24 hrs by two-fold serial dilution method. The format is functional. The note with it: ATCC 9885, 24 h.
In the case of `Cc1ccc(-n2nnc(C3=NNC(c4ccc(C#N)cc4)C3)c2C)cc1` (stereo not drawn), the minimum inhibitory concentration (MIC) (in general, the lowest concentration that inhibits growth of the organism) was 33 µg/mL (≈ 96.4 µM).
Same read-out and setting: under `O=C(O)c1cn(C2CC2)c2cc(N3CCNCC3)c(F)cc2c1=O` [CIPROFLOXACIN] stands 8.25 µg/mL (≈ 24.9 µM).

The subject of the next experiment is Micrococcus luteus. Briefly: Antimicrobial activity against Sarcina lutea after 24 hrs by two-fold serial dilution method. It is filed as functional.
Conditions: not given
The molecule `Cc1ccc(-n2nnc(C3=NNC(c4ccc(C#N)cc4)C3)c2C)cc1` (stereo not drawn) returned an MIC of 8.25 µg/mL (≈ 24.1 µM).
Regarding `O=C(O)c1cn(C2CC2)c2cc(N3CCNCC3)c(F)cc2c1=O` [CIPROFLOXACIN], 16.5 µg/mL (≈ 49.8 µM) was the least that counted as inhibitory (MIC).

Another experiment deals with Klebsiella pneumoniae. In words: Antimicrobial activity against Klebsiella pneumoniae ATCC 13883 after 24 hrs by two-fold serial dilution method. The conditions noted are these: ATCC 13883, 24 h. The format is functional.
The molecule `Cc1ccc(-n2nnc(C3=NNC(c4ccc(C#N)cc4)C3)c2C)cc1` (stereo not drawn) yielded an MIC of 8.25 µg/mL (≈ 24.1 µM).
Still for that read-out and setting: under `O=C(O)c1cn(C2CC2)c2cc(N3CCNCC3)c(F)cc2c1=O` [CIPROFLOXACIN] stands 16.5 µg/mL (≈ 49.8 µM).

The test system of a further experiment is Pseudomonas aeruginosa. In words: Antimicrobial activity against Pseudomonas aeruginosa ATCC 27953 after 24 hrs by two-fold serial dilution method. The format is functional. The note with it: ATCC 27953, 24 h.
In turn, `Cc1ccc(-n2nnc(C3=NNC(c4ccc(C#N)cc4)C3)c2C)cc1` (stereo not drawn) returned an MIC of 8.25 µg/mL (≈ 24.1 µM).
Same read-out and setting: under `O=C(O)c1cn(C2CC2)c2cc(N3CCNCC3)c(F)cc2c1=O` [CIPROFLOXACIN] stands 16.5 µg/mL (≈ 49.8 µM).

The test system of the next experiment is Escherichia coli. Briefly: Antimicrobial activity against Escherichia coli ATCC 25922 after 24 hrs by two-fold serial dilution method. The note with it: ATCC 25922, 24 h. It is filed as functional.
With `Cc1ccc(-n2nnc(C3=NNC(c4ccc(C#N)cc4)C3)c2C)cc1` (stereo not drawn), it took 8.25 µg/mL (≈ 24.1 µM) to inhibit growth (MIC).
As for `O=C(O)c1cn(C2CC2)c2cc(N3CCNCC3)c(F)cc2c1=O` [CIPROFLOXACIN], it took 16.5 µg/mL (≈ 49.8 µM) to inhibit growth (MIC).

Another experiment has as its system Saccharomyces cerevisiae. Briefly: Antifungal activity against Saccharomyces cerevisiae by two-fold serial dilution method. The format is functional.
Conditions: not given
`Cc1ccc(-n2nnc(C3=NNC(c4ccc(C#N)cc4)C3)c2C)cc1` (stereo not drawn) registered an MIC of 8.25 µg/mL (≈ 24.1 µM).
Still for that read-out and setting: in the case of `CC(=O)N1CCN(c2ccc(OCC3COC(Cn4ccnc4)(c4ccc(Cl)cc4Cl)O3)cc2)CC1` (stereo not drawn) [KETOCONAZOLE] it was 8.25 µg/mL (≈ 15.5 µM).

For the next experiment, the system named is Candida albicans. Briefly: Antifungal activity against Candida albicans NRRL Y-477 by two-fold serial dilution method. The format is functional.
Conditions: not given
`Cc1ccc(-n2nnc(C3=NNC(c4ccc(C#N)cc4)C3)c2C)cc1` (stereo not drawn) displayed an MIC of 8.25 µg/mL (≈ 24.1 µM).
The same measure, in the same setting: under `CC(=O)N1CCN(c2ccc(OCC3COC(Cn4ccnc4)(c4ccc(Cl)cc4Cl)O3)cc2)CC1` (stereo not drawn) [KETOCONAZOLE] stands 8.25 µg/mL (≈ 15.5 µM).

In the next experiment the test system is Staphylococcus aureus. Briefly: microbe, parasite or virus in culture. The note with it: ATCC 29213, 24 h, read-out: DIZ.
Description: Antimicrobial activity against Staphylococcus aureus ATCC 29213 at 50 ug/ml after 24 hrs by agar well diffusion assay
For `O=C(O)c1cn(C2CC2)c2cc(N3CCNCC3)c(F)cc2c1=O` [CIPROFLOXACIN], the zone of inhibition at 50 µg/mL was found to be 20 mm.

The next experiment has as its system Bacillus subtilis. Briefly: microbe, parasite or virus in culture. The note with it: ATCC 6633, 24 h, read-out: DIZ.
Description: Antimicrobial activity against Bacillus subtilis ATCC 6633 at 50 ug/ml after 24 hrs by agar well diffusion assay
For `O=C(O)c1cn(C2CC2)c2cc(N3CCNCC3)c(F)cc2c1=O` [CIPROFLOXACIN], the zone of inhibition at 50 µg/mL amounted to 22 mm.

The next experiment has as its system Klebsiella pneumoniae. Briefly: microbe, parasite or virus in culture. The note with it: ATCC 13883, 24 h, read-out: DIZ.
Description: Antimicrobial activity against Klebsiella pneumoniae ATCC 13883 at 50 ug/ml after 24 hrs by agar well diffusion assay
As for `O=C(O)c1cn(C2CC2)c2cc(N3CCNCC3)c(F)cc2c1=O` [CIPROFLOXACIN], the zone of inhibition at 50 µg/mL was 25 mm.

In the next experiment the test system is Pseudomonas aeruginosa. In words: microbe, parasite or virus in culture. The note with it: ATCC 27953, 24 h, read-out: DIZ.
Description: Antimicrobial activity against Pseudomonas aeruginosa ATCC 27953 at 50 ug/ml after 24 hrs by agar well diffusion assay
With `O=C(O)c1cn(C2CC2)c2cc(N3CCNCC3)c(F)cc2c1=O` [CIPROFLOXACIN], the zone of inhibition at 50 µg/mL is 24 mm.
